# Test results as given in patent US7196112B2, “Cell adhesion inhibitors” (Biogen Idec MA Inc., priority 2004, dated 2007).
# Like-named read-outs stand apart in the source and are kept apart here.
# Assays:
# α4β1 [1] = target: T1, α4β1 (Homo sapiens, UniProt P05556+P13612); assay: Equilibrium binding on Jurkat cells, competition with 35S-B as reporter
# Experimental: The α4β1-expressing Jurkat human T-cell line (a gift from S. Burakoff, Dana Farber Cancer Institute, Boston, Mass.), and the α4β7-expressing human B-cell line, JY (American Type Tissue Collection, Rockville, Md.) were maintained in culture at 37° C. in RPMI-1640 medium supplemented with 10% fetal bovine serum (FBS). K562 cell lines transfected with either the human α1-integrin chain (Phil Gotwells, Biogen, Inc) or with the human α2 integrin chain (a gift from M. Hemler, Dana Farber Cancer Institute, Boston, Mass.) were maintained in RPMI-1640 medium supplemented with 10% FBS and 1 mg/mL G418. All cells were periodically monitored for high integrin surface expression by FACS analysis. The binding of the various inhibitors to α4β1 were assessed on Jurkat cells by competition using radioactive ^35S-B as a reporter for a 1 occupancy. Jurkat cells were pelleted by centrifugation, washed two times with TBS (50 mM Tris HCl, 150 mM NaCl, 0.1% bovine serum albumin, 2 mM glucose, 10 mM HEPES pH 7.4), suspended at approximately 2×10^6 cells/mL in TBS, and counted using a Neubauer hemocytometer. The cells were further diluted 2×10^6 cells/mL with TBS containing 1 mM CaCl2 and 1 mM MgCl2 and treated with serial dilutions of test compound for 1 hour, and then 5 nM ^35S-B, an amount sufficient to bind all unoccupied receptors, was added for 10 minutes before measuring the bound counts. The cells were then pelleted by centrifugation, resuspended in 100 μL of TBS plus Mn^2+, and transferred to a scintillation vial containing 2.9 mL of ScintiVerse II (Fisher Scientific). Cell-associated radioactivity was quantified by scintillation counting. All studies were performed in siliconized 1.5 mL eppendorf tubes with a standard 1 mL sample volume. Each condition was tested in at least two independent studies. Non-specific binding of ^35S-B to cells was assessed at each cell density and ^35S-B concentration in TBS but in the absence of added metal ion. Specific counts bound were calculated by subtracting non specific counts from total counts bound. Counts bound under these conditions measures integrin that is not occupied by the test compound and is therefore free to bind the ^35S-B. The competition format was also used for kinetic binding studies. Binding and dissociation constants were calculated from α4β1 that remained free to bind the ^35S-B after treatment with test compound.
# The affinities of the PEGylated inhibitors for α4β1 were calculated from association and disassociation rate constants using a kinetic analysis. For these studies, Jurkat cells expressing α4β1 (75,000 copies/cell) were treated with the inhibitors and then ^35S-B was added as a probe to detect free α4β1. The levels of bound inhibitor were calculated from a measure of total ^35S-B bound in the absence of added inhibitor and counts bound following inhibitor treatment. […] IC50 values were calculated from equilibrium binding studies on Jurkat cells through competition using ^35S-B as a reporter in buffer containing 1 mM Ca^2+ and 1 mM Mg^2+.
# Second, the effect of protein binding on the affinity of the PEGylated inhibitors for α4β1 on Jurkat cells was evaluated from equilibrium binding measurements.
# α4β1 [2] = target: T1, α4β1; assay: Kinetic binding to α4β1 on Jurkat cells, competition with 35S-B as probe for free α4β1; design: endogenous in cells; host or cells: Jurkat human T-cell line; details: for koff: read-out: koff/10^−4; for kon: read-out: kon/10^6; for Kd: calculated from on- and off-rate constants
# Experimental: All cells were periodically monitored for high integrin surface expression by FACS analysis. The binding of the various inhibitors to α4β1 were assessed on Jurkat cells by competition using radioactive ^35S-B as a reporter for a 1 occupancy. Jurkat cells were pelleted by centrifugation, washed two times with TBS (50 mM Tris HCl, 150 mM NaCl, 0.1% bovine serum albumin, 2 mM glucose, 10 mM HEPES pH 7.4), suspended at approximately 2×10^6 cells/mL in TBS, and counted using a Neubauer hemocytometer. The cells were further diluted 2×10^6 cells/mL with TBS containing 1 mM CaCl2 and 1 mM MgCl2 and treated with serial dilutions of test compound for 1 hour, and then 5 nM ^35S-B, an amount sufficient to bind all unoccupied receptors, was added for 10 minutes before measuring the bound counts. The cells were then pelleted by centrifugation, resuspended in 100 μL of TBS plus Mn^2+, and transferred to a scintillation vial containing 2.9 mL of ScintiVerse II (Fisher Scientific). Cell-associated radioactivity was quantified by scintillation counting. All studies were performed in siliconized 1.5 mL eppendorf tubes with a standard 1 mL sample volume. Each condition was tested in at least two independent studies. Non-specific binding of ^35S-B to cells was assessed at each cell density and ^35S-B concentration in TBS but in the absence of added metal ion. Specific counts bound were calculated by subtracting non specific counts from total counts bound. Counts bound under these conditions measures integrin that is not occupied by the test compound and is therefore free to bind the ^35S-B. The competition format was also used for kinetic binding studies. Binding and dissociation constants were calculated from α4β1 that remained free to bind the ^35S-B after treatment with test compound.
# The affinities of the PEGylated inhibitors for α4β1 were calculated from association and disassociation rate constants using a kinetic analysis. For these studies, Jurkat cells expressing α4β1 (75,000 copies/cell) were treated with the inhibitors and then ^35S-B was added as a probe to detect free α4β1. The levels of bound inhibitor were calculated from a measure of total ^35S-B bound in the absence of added inhibitor and counts bound following inhibitor treatment.
# α4β1 [3] = target: T1, α4β1; assay: VCAM-Ig direct binding assay (DBA), Jurkat cells
# Text: A direct binding assay may also be employed to quantitate the inhibitory activity of the compounds. In this assay, a VCAM-IgG fusion protein containing the first two immunoglobulin domains of VCAM (D1D2) attached above the hinge region of an IgG1 molecule (“VCAM 2D-IgG”), is conjugated to a marker enzyme, such as alkaline phosphatase (“AP”). […] The conjugation of that fusion to a marker enzyme is achieved by cross-linking methods well-known in the art.
# The VCAM-IgG enzyme conjugate is then placed in the wells of a multi-well filtration plate, such as that contained in the Millipore Multiscreen Assay System (Millipore Corp., Bedford, Mass.). Varying concentrations of the test inhibitory compound are then added to the wells followed by addition of VLA-4-expressing cells. The cells, compound and VCAM-IgG enzyme conjugate are mixed together and allowed to incubate at room temperature. Following incubation, the wells are vacuum drained, leaving behind the cells and any bound VCAM. Quantitation of bound VCAM is determined by adding an appropriate calorimetric substrate for the enzyme conjugated to VCAM-IgG and determining the amount of reaction product. Decreased reaction product indicates increased binding inhibitory activity.
# Samples were also evaluated for function using the VCAM-Ig direct binding assay. Details for the construction of the VCAM-Ig animal cell expression vector, the generation of a Chinese hamster ovary (CHO) cell line expressing VCAM-Ig, conjugation of the VCAM-Ig to alkaline phosphatase, and the development of a direct binding assay for characterizing α4β1 and α4β7 binding to VCAM-Ig were as previously described (see Lobb, R. R., et al. (1995) Cell Adhes. Commun. 3:385–397).
# For these studies, a series of compounds based on compound E containing 0.35, 2, 5, 20, 30, and 50 kDa-mPEG was synthesized and tested for binding to α4β1 on Jurkat cells with VCAM-Ig as a reporter (see methods).
# [4] = IC50, buffer with 1 mM Ca2+ and 1 mM Mg2+, no plasma
# T1 sequence (P13612 34-1032): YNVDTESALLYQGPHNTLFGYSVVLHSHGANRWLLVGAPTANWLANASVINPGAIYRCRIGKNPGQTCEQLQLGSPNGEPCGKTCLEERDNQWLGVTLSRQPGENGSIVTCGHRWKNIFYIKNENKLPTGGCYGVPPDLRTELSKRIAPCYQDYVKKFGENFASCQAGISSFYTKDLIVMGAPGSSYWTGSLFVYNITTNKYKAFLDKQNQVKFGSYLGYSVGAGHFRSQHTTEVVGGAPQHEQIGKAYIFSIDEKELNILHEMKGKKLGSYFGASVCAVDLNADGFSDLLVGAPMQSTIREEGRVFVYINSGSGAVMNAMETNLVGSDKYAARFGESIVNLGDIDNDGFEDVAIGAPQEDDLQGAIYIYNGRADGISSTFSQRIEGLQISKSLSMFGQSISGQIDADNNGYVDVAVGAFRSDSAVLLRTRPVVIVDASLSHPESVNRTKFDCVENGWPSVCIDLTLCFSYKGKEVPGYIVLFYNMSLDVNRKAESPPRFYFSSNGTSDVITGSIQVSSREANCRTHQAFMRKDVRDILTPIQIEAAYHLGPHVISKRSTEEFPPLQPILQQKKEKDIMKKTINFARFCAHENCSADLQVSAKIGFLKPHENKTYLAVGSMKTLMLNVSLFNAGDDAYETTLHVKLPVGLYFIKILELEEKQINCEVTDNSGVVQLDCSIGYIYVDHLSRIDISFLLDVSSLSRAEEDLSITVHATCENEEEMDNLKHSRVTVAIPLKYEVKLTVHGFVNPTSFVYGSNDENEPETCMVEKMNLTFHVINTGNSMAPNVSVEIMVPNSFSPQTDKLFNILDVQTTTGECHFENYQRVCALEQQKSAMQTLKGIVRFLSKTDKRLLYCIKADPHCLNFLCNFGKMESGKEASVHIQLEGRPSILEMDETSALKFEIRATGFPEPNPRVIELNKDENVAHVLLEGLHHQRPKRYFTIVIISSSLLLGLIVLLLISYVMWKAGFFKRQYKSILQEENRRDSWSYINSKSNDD
# T1 sequence (P05556 21-798): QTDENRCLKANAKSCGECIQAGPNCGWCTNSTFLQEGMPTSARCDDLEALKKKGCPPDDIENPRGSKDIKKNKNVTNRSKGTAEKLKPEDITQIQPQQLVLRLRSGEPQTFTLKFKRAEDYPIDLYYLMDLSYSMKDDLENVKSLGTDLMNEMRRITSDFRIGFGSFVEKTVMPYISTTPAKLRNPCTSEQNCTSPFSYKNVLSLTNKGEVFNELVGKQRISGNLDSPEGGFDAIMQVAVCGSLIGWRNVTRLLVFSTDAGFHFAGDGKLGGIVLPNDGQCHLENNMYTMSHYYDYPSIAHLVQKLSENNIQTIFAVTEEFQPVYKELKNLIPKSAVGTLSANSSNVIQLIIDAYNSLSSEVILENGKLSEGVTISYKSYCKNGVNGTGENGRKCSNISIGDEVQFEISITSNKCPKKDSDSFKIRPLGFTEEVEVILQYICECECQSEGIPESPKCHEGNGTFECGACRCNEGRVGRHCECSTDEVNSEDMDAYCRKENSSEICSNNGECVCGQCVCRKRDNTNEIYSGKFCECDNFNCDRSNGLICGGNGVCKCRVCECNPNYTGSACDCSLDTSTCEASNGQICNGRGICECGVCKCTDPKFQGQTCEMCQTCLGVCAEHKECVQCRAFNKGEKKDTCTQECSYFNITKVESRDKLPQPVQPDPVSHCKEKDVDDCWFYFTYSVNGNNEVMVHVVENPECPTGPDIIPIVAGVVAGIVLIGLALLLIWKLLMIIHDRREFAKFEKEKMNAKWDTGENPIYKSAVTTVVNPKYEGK
"koff (α4β1 [2]; Jurkat cells, 35S-B probe)","kon (α4β1 [2]; Jurkat cells, 35S-B probe)",SMILES,"IC50 (α4β1 [1]; IC50(HP), 100% human plasma)",IC50 (α4β1 [1]; [4]),Kd (α4β1 [2]; Jurkat cells),koff (α4β1 [2]),kon (α4β1 [2]),"% bound Ca2+Mg2+ 30 min (α4β1 [2]; Ca2+Mg2+, 30 min)","% bound Mn2+ 60 min (α4β1 [2]; Mn2+, 60 min)","DBA 100% rat plasma, % @ 50 nM (α4β1 [3]; 100% rat plasma, 50 nM)","IC50 (α4β1 [3]; read-out: DBA IC50 Ca2+Mg2+, Ca2+Mg2+)","IC50 (α4β1 [3]; read-out: DBA IC50 Mn2+, Mn2+)"
0.00024 s⁻¹,3.4e+06 M⁻¹ s⁻¹,Cc1ccccc1NC(=O)Nc1ccc(CC(=O)N(C)[C@@H](CC(C)C)C(=O)NCC[C@H](NC(=O)[C@@H]2C[C@H](N)CN2S(=O)(=O)c2ccccc2)C(=O)O)cc1 [F],8.7 nM,3.5 nM,0.07 nM,–,–,–,–,–,–,–
–,–,Cc1ccccc1NC(=O)Nc1ccc(CC(=O)N(C)C(CC(C)C)C(=O)NCCC(NC(=O)[C@@H]2C[C@H](NC(=O)CCCCCN)CN2S(=O)(=O)c2ccccc2)C(=O)O)cc1 (relative stereo) [D],7.9 nM,1.5 nM,0.061 nM,0.0002 s⁻¹,3.3e+06 M⁻¹ s⁻¹,–,–,–,–,–
–,–,"Cc1ccccc1NC(=O)Nc1ccc(CC(=O)N(C)[C@@H](CCCCNC(=O)CCCCCN)C(=O)NCC[C@H](NC(=O)[C@@H]2CCCN2S(=O)(=O)c2ccccc2)C(=O)O)cc1 [Compound A, 4-[6-(6-Amino-hexanoylamino)-2(S)-(methyl-{2-[4-(3-o-tolyl-ureido)-phenyl]-acetyl}-amino)-hexanoylamino]-2(S)-[(1-benzenesulfonyl-pyrrolidine-2(S)-carbonyl)-amino]-butyric acid]",2.1 nM,0.35 nM,0.25 nM,0.00053 s⁻¹,2e+06 M⁻¹ s⁻¹,–,–,–,–,–
0.00012 s⁻¹,3e+06 M⁻¹ s⁻¹,Cc1ccccc1NC(=O)Nc1ccc(CC(=O)N(C)[C@@H](CC(C)C)C(=O)NCC[C@H](NC(=O)[C@@H]2C[C@@H](N)CN2S(=O)(=O)c2ccccc2)C(=O)O)cc1 [C],2.1 nM,1.2 nM,0.04 nM,–,–,–,–,–,–,–
–,–,Cc1ccccc1NC(=O)Nc1ccc(CC(=O)N(C)C(CC(C)C)C(=O)NCCC(NC(=O)C2CC(NC(=O)CCCCCNC(=O)CCCCCCC(=O)NCCCCCC(=O)NC3CC(C(=O)NC(CCNC(=O)C(CC(C)C)N(C)C(=O)Cc4ccc(NC(=O)Nc5ccccc5C)cc4)C(=O)O)N(S(=O)(=O)c4ccccc4)C3)CN2S(=O)(=O)c2ccccc2)C(=O)O)cc1 (stereo not drawn) [Q],–,–,–,–,–,0.1%,93%,(0% @,74 nM,4.3 nM
–,–,Cc1ccccc1NC(=O)Nc1ccc(CC(=O)N(C)C(CC(C)C)C(=O)NCCC(NC(=O)[C@@H]2C[C@@H](NC(=O)CCCCCN)CN2S(=O)(=O)c2ccccc2)C(=O)O)cc1 (relative stereo) [E],2.3 nM,1.4 nM,0.044 nM,0.00011 s⁻¹,2.5e+06 M⁻¹ s⁻¹,–,–,–,–,–
